Measurements published in patent US11051515B2, “3-acyl-benzamides and their use as herbicides” (Bayer Aktiengesellschaft, priority 2017, dated 2021).

Key:
ABUTH [1] = assay: Post-emergence action against ABUTH; format: in vivo, Abutilon theophrasti; settings: post-emergence, dosage 80 g/ha, visual assessment about 3 weeks after treatment vs untreated controls
Method: (§1) Seeds of monocotyledonous and dicotyledonous weed and crop plants are laid out in sandy loam soil in wood-fiber pots, covered with soil and cultivated in a greenhouse under good growth conditions. 2 to 3 weeks after sowing, the test plants are treated at the one-leaf stage. The compounds of the invention, formulated in the form of wettable powders (WP) or as emulsion concentrates (EC), are then sprayed onto the green parts of the plants in the form of an aqueous suspension or emulsion at a water application rate equating to […], with addition of 0.2% wetting agent. After the test plants have been left to stand in the greenhouse under optimal growth conditions for about 3 weeks, the action of the preparations is assessed visually in comparison to untreated controls (herbicidal action in percent (%): 100% activity=the plants have died, 0% activity=like control plants). […] At the same time, inventive compounds leave Gramineae crops such as barley, wheat, rye, millet/Sorghum, corn or rice virtually undamaged when applied post-emergence, even at high active ingredient dosages. In addition, some substances are also harmless to dicotyledonous crops such as soya, cotton, oilseed rape, sugar beet or potatoes. Some of the compounds according to the invention have high selectivity and are therefore suitable for controlling unwanted vegetation in agricultural crops by the post-emergence method. The data of Tables B18 to B34 below illustrate, in an exemplary manner, the […] herbicidal action of the compounds according to the invention, the herbicidal activity being stated in percent.

VERPE [2] = assay: Post-emergence action against VERPE; format: in vivo, Veronica persica; settings: dosage 80 g/ha; for pest or weed control at 80 g/ha: Veronica persica, 504 h
Method: as §1

VERPE [3] = assay: Pre-emergence action against VERPE; format: in vivo, Veronica persica; settings: Dosage 320 g/ha, pre-emergence; for pest or weed control at 320 g/ha: Veronica persica, 504 h
Source text: (§2) Seeds of monocotyledonous and dicotyledonous weed plants and crop plants are laid out in sandy loam soil in wood-fiber pots and covered with soil. The compounds of the invention, formulated in the form of wettable powders (WP) or as emulsion concentrates (EC), are then applied to the surface of the covering soil in the form of an aqueous suspension or emulsion at a water application rate equating to […], with addition of 0.2% wetting agent. After the treatment, the pots are placed in a greenhouse and kept under good growth conditions for the trial plants. The damage to the test plants is scored visually after a test period of 3 weeks by comparison with untreated controls (herbicidal activity in percent (%): 100% activity=the plants have died, 0% activity=like control plants).

AMARE [4] = assay: Post-emergence action against AMARE; format: in vivo, Amaranthus retroflexus; settings: post-emergence, dosage 80 g/ha, visual assessment about 3 weeks after treatment vs untreated controls; for pest or weed control at 80 g/ha: Amaranthus retroflexus, 504 h, read-out: Post-emergence action against AMARE (herbicidal action in percent)
Method: as §1

STEME [5] = assay: Post-emergence action against STEME; format: in vivo, Stellaria media; settings: post-emergence, dosage 80 g/ha; for pest or weed control at 80 g/ha: Stellaria media, 504 h
Method: as §1

VIOTR [6] = assay: Post-emergence action against VIOTR; format: in vivo, Viola tricolor; settings: post-emergence, dosage 80 g/ha
Method: as §1

MATIN [7] = assay: Pre-emergence action against MATIN; format: in vivo, Matricaria inodora; settings: Dosage 320 g/ha, pre-emergence; for pest or weed control at 320 g/ha: Tripleurospermum inodorum, 504 h
Source text: as §2

STEME [8] = assay: Pre-emergence action against STEME; format: in vivo, Stellaria media; settings: Dosage 320 g/ha, pre-emergence
Source text: as §2

ECHCG [9] = assay: Pre-emergence action against ECHCG; format: in vivo, Echinochloa crus-galli; settings: pre-emergence, dosage 320 g/ha, scored visually after 3 weeks vs untreated controls
Source text: as §2

ECHCG [10] = assay: Post-emergence action against ECHCG; format: in vivo, Echinochloa crus-galli; settings: post-emergence, dosage 80 g/ha, visual assessment about 3 weeks after treatment vs untreated controls
Method: as §1

MATIN [11] = assay: Post-emergence action against MATIN; format: in vivo, Matricaria inodora; settings: post-emergence, dosage 80 g/ha, visual assessment about 3 weeks after treatment vs untreated controls
Method: as §1

AMARE [12] = assay: Pre-emergence action against AMARE; format: in vivo, Amaranthus retroflexus; settings: pre-emergence, dosage 320 g/ha, scored visually after 3 weeks vs untreated controls; for pest or weed control at 320 g/ha: Amaranthus retroflexus, 504 h, read-out: Pre-emergence action against AMARE (herbicidal activity)
Source text: as §2

VIOTR [13] = assay: Pre-emergence action against VIOTR; format: in vivo, Viola tricolor; settings: Dosage 320 g/ha, pre-emergence
Source text: as §2

PHBPU = assay: Post-emergence action against PHBPU; format: in vivo, Pharbitis purpurea; settings: post-emergence, dosage 80 g/ha
Method: as §1

ABUTH [14] = assay: Pre-emergence action against ABUTH; format: in vivo, Abutilon theophrasti; settings: pre-emergence, dosage 320 g/ha, scored visually after 3 weeks vs untreated controls
Source text: as §2

AVEFA = assay: Pre-emergence action against AVEFA; format: in vivo, Avena fatua; settings: dosage 320 g/ha, scored visually after 3 weeks vs untreated controls
Source text: as §2

ALOMY = assay: Pre-emergence action against ALOMY; format: in vivo, Alopecurus myosuroides; settings: dosage 320 g/ha; pre-emergence; scored visually after 3 weeks vs untreated controls; 100% = plants have died, 0% = like control plants
Source text: as §2

SETVI = assay: Pre-emergence action against SETVI; format: in vivo, Setaria viridis; settings: pre-emergence, dosage 320 g/ha, scored visually after 3 weeks vs untreated controls
Source text: as §2

SMILES	Pre-emergence action against VIOTR (VIOTR [13]) [%]	Post-emergence action against STEME (STEME [5])	Pre-emergence action against VERPE (VERPE [3]) [%]	Post-emergence action against AMARE (herbicidal action in percent) (AMARE [4]) [%]	Pre-emergence action against MATIN (MATIN [7]) [%]	Pre-emergence action against STEME (STEME [8]) [%]	Post-emergence action against PHBPU (PHBPU)	Post-emergence action against MATIN (herbicidal action in percent) (MATIN [11]) [%]	Pre-emergence action against AMARE (herbicidal activity) (AMARE [12]) [%]	Pre-emergence action against ABUTH (herbicidal activity) (ABUTH [14]) [%]	Post-emergence action against ABUTH (herbicidal action in percent) (ABUTH [1]) [%]	further results
CC(=O)c1c(C(F)(F)F)ccc(C(=O)Nc2nnnn2C)c1C [1-14]												pest or weed control at 80 g/ha (ABUTH [1]; Abutilon theophrasti, 504 h, read-out: Post-emergence action against ABUTH (herbicidal action in percent)): 90%; pest or weed control at 80 g/ha (VERPE [2]): 80%; pest or weed control at 320 g/ha (VERPE [3]): 90%; pest or weed control at 80 g/ha (AMARE [4]): 80%
CCC(=O)c1c(C)ccc(C(=O)Nc2nnnn2C)c1Cl [1-135]												pest or weed control at 80 g/ha (STEME [5]): 100%; pest or weed control at 80 g/ha (VIOTR [6]; Viola tricolor, 504 h): 90%; pest or weed control at 80 g/ha (VERPE [2]): 80%; pest or weed control at 320 g/ha (VERPE [3]): 90%; pest or weed control at 80 g/ha (AMARE [4]): 90%; pest or weed control at 320 g/ha (MATIN [7]): 90%; pest or weed control at 320 g/ha (STEME [8]; Stellaria media, 504 h): 90%; pest or weed control at 320 g/ha (ECHCG [9]; Echinochloa crus-galli, 504 h, read-out: Pre-emergence action against ECHCG (herbicidal activity)): 90%; pest or weed control at 80 g/ha (ECHCG [10]; Echinochloa crus-galli, 504 h, read-out: Post-emergence action against ECHCG (herbicidal action in percent)): 80%; pest or weed control at 80 g/ha (MATIN [11]; Tripleurospermum inodorum, 504 h, read-out: Post-emergence action against MATIN (herbicidal action in percent)): 90%; pest or weed control at 320 g/ha (AMARE [12]): 100%
Cn1nnnc1NC(=O)c1ccc(Cl)c(C(=O)C2CCCC2)c1Cl [1-281]	100	100	100	90	90	80	90	80	90			Post-emergence action against VIOTR (VIOTR [6]): 100; Post-emergence action against VERPE (VERPE [2]): 80
Cn1nnnc1NC(=O)c1ccc(Cl)c(C(=O)c2cccs2)c1Cl [1-282]												pest or weed control at 80 g/ha (STEME [5]): 80%; pest or weed control at 80 g/ha (AMARE [4]): 80%; pest or weed control at 320 g/ha (MATIN [7]): 80%; pest or weed control at 320 g/ha (ABUTH [14]; Abutilon theophrasti, 504 h, read-out: Pre-emergence action against ABUTH (herbicidal activity)): 90%; pest or weed control at 320 g/ha (AMARE [12]): 80%
COc1ccc(C(=O)c2c(Cl)ccc(C(=O)Nc3nnnn3C)c2Cl)cc1 [1-283]		80								90		
CCn1nnnc1NC(=O)c1ccc(C(F)(F)F)c(C(=O)C2CCCC2)c1Cl [2-154]		90		100			90				90	
CCn1nnnc1NC(=O)c1ccc(C(F)(F)F)c(C(=O)C(F)(F)F)c1Cl [2-162]	100	100		90		100	100		90	100		Post-emergence action against VIOTR (VIOTR [6]): 100
CCn1nnnc1NC(=O)c1ccc(Cl)c(C(=O)C2CCCC2)c1Cl [2-281]	100	100	90	90	90	90	100	80	90			Post-emergence action against VIOTR (VIOTR [6]): 90; Post-emergence action against VERPE (VERPE [2]): 80
CCn1nnnc1NC(=O)c1ccc(Cl)c(C(=O)c2cccs2)c1Cl [2-282]						80			80	100		
CCn1nnnc1NC(=O)c1ccc(Cl)c(C(=O)c2ccc(OC)cc2)c1Cl [2-283]						90					80	
CCn1nnnc1NC(=O)c1ccc(C(F)(F)F)c(C(=O)C2CCCCC2)c1SC [2-285]	100	80	90	90	90	100		80	100	100	90	Pre-emergence action against ECHCG (herbicidal activity) (ECHCG [9]): 80%; Pre-emergence action against AVEFA (herbicidal activity) (AVEFA): 80%
CCCn1nnnc1NC(=O)c1ccc(C)c(C(=O)CC)c1Cl [3-135]		100	80	90	90	90	90	80	90			Pre-emergence action against ECHCG (herbicidal activity) (ECHCG [9]): 90%; Pre-emergence action against ALOMY (herbicidal activity in percent) (ALOMY): 80%; Post-emergence action against ECHCG (herbicidal action in percent) (ECHCG [10]): 80%
CCCn1nnnc1NC(=O)c1ccc(C(F)(F)F)c(C(=O)C(C)C)c1Cl [3-140]	100	90	100	80	100	100	90	90	100	100	100	SETVI (Table B8, pre-emergence herbicidal activity) (SETVI): 90%; Post-emergence action against VIOTR (VIOTR [6]): 100; Pre-emergence action against ECHCG (herbicidal activity) (ECHCG [9]): 90%; Pre-emergence action against ALOMY (herbicidal activity in percent) (ALOMY): 90%; Post-emergence action against ECHCG (herbicidal action in percent) (ECHCG [10]): 100%
CCCn1nnnc1NC(=O)c1ccc(C(F)(F)F)c(C(=O)C2CCCCC2)c1Cl [3-155]		80		90		100			90	100	80	
CCCn1nnnc1NC(=O)c1ccc(C(F)(F)F)c(C(=O)c2cc(F)cc(F)c2)c1Cl [3-282]	90			80			90				80	
